The nature of this series: Moisture sorption/desorption isotherm measurement (DVS). As to conditions: for change in mass when the humidity was changed (DVS): 0% to 95% RH, 25° C. Format: physicochemical. As to the method:
About 15 to 25 mg of a sample was weighed into a sample pan, and measurement was made. Measurement conditions are as follows. • Device: DVS Adventure manufactured by Surface Measurement Systems Ltd. • Measurement points: 0% to 95% RH every 5%, and 95% RH to 0% every 5% • Temperature: 25° C.
Regarding the comparison of the X-ray powder analysis patterns before and after the DVS measurement, measurement was performed by the following method.
• Measuring method: reflection method • Wavelength used: CuKα ray • Tube current: 200 mA • Tube voltage: 45 kV • Sampling plate: aluminum • X-ray incident angle: 2.5° • Sampling width: 0.02° • Detector: HyPix-3000 (two-dimensional detection mode)

Take `Cn1cnc(Cn2c(=O)[nH]/c(=N\c3cc4cn(C)nc4cc3Cl)n(Cc3cc(F)c(F)cc3F)c2=O)n1`: the “change in mass when the humidity was changed (DVS)” value reads like this: (crystal of Example a (FIG. 6)) “No substantial change in mass”; (crystal of Step 5-2 of Example 1b (FIG. 18)) “No substantial change in mass”. Further, for the setting “crystal of Step 5-2 of Example 1b (FIG. 19)”, the “crystalline form before and after the DVS measurement (X-ray powder patterns)” value was “did not change”.

The values above are taken from patent US20240148741A1, “FORMULATION FOR ORAL ADMINISTRATION, COMPRISING TRIAZINE DERIVATIVE” (priority 2021, published 2024).
